According to PubChem BioAssay AID2060903 (Molecular Pharmacology Branch, DTP, NCI, 2025):

System: 377384-186-R-J1-PDC complex spheroid viability
Experiment: Anticancer human tumor 377384-186-R-J1-PDC patient-derived pancreatic carcinoma cell line growth inhibition [RAS]
Conditions: for viability, T/C: stronger effect = lower value
In short: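 Agents were tested in combination matrices in half-log decrements from a top concentration at or near clinical Cmax (10 microM if undetermined). Targets were multi-cell spheroids of tumour lines plus HUVEC and MSC stromal cells.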

[1] = curve of first compound, second compound 0.0316 µM
[2] = curve of first compound, second compound 0.1 µM
[3] = curve of first compound, second compound 0.316 µM
[4] = curve of first compound, second compound 1 µM
[5] = curve of first compound, second compound 3.16 µM
[6] = curve of first compound, second compound 10 µM
[7] = second compound 0.0316 µM, first compound 0.0316 µM
[8] = second compound 0.0316 µM, first compound 0.1 µM
[9] = second compound 0.0316 µM, first compound 0.316 µM
[10] = second compound 0.0316 µM, first compound 1 µM
[11] = second compound 0.1 µM, first compound 0.0316 µM
[12] = second compound 0.1 µM, first compound 0.1 µM
[13] = second compound 0.1 µM, first compound 0.316 µM
[14] = second compound 0.1 µM, first compound 1 µM
[15] = second compound 0.316 µM, first compound 0.0316 µM
[16] = second compound 0.316 µM, first compound 0.1 µM
[17] = second compound 0.316 µM, first compound 0.316 µM
[18] = second compound 0.316 µM, first compound 1 µM
[19] = second compound 1 µM, first compound 0.0316 µM
[20] = second compound 1 µM, first compound 0.1 µM
[21] = second compound 1 µM, first compound 0.316 µM
[22] = second compound 1 µM, first compound 1 µM
[23] = second compound 3.16 µM, first compound 0.0316 µM
[24] = second compound 3.16 µM, first compound 0.1 µM
[25] = second compound 3.16 µM, first compound 0.316 µM
[26] = second compound 3.16 µM, first compound 1 µM
[27] = second compound 10 µM, first compound 0.0316 µM
[28] = second compound 10 µM, first compound 0.1 µM
[29] = second compound 10 µM, first compound 0.316 µM
[30] = second compound 10 µM, first compound 1 µM
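Also: spheroids exposed to compounds for seven days before readout.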

CC(Nc1ccc2c(c1)OCCn1cc(N3C(=O)OCC3C(F)F)nc1-2)C(N)=O (stereo not drawn) + CCn1c(-c2cccnc2C(C)OC)c2c3cc(ccc31)N1CCOC(CC(NC(=O)C(C(C)C)N(C)C(=O)C3(F)CCN(C(=O)C#CC(C)(C)N(C)C)CC3)C(=O)N3CCCC(N3)C(=O)OCC(C)(C)C2)C1
IC50 (curve of first compound, second compound 0.000949 µM): 0.65 µM | IC50 (curve of first compound, second compound 0.003 µM): 0.716 µM | IC50 (curve of first compound, second compound 0.00949 µM): 0.453 µM | IC50 (curve of first compound, second compound 0.03 µM): 0.51 µM | IC50 (curve of first compound, second compound 0.0949 µM): 0.28 µM | IC50 (curve of first compound, second compound 0.3 µM): 0.132 µM | viability, T/C (second compound 0.000949 µM, first compound 0.0316 µM): 86.7% | viability, T/C (second compound 0.000949 µM, first compound 0.1 µM): 68.8% | viability, T/C (second compound 0.000949 µM, first compound 0.316 µM): 56.5% | viability, T/C (second compound 0.000949 µM, first compound 1 µM): 48% | viability, T/C (second compound 0.000949 µM, first compound 3.16 µM): 34% | viability, T/C (second compound 0.000949 µM, first compound 10 µM): 26.5% | viability, T/C (second compound 0.003 µM, first compound 0.0316 µM): 94.1% | viability, T/C (second compound 0.003 µM, first compound 0.1 µM): 74.7% | viability, T/C (second compound 0.003 µM, first compound 0.316 µM): 57.7% | viability, T/C (second compound 0.003 µM, first compound 1 µM): 47.2% | viability, T/C (second compound 0.003 µM, first compound 3.16 µM): 35.6% | viability, T/C (second compound 0.003 µM, first compound 10 µM): 23.1% | viability, T/C (second compound 0.00949 µM, first compound 0.0316 µM): 92.5% | viability, T/C (second compound 0.00949 µM, first compound 0.1 µM): 70% | viability, T/C (second compound 0.00949 µM, first compound 0.316 µM): 53.3% | viability, T/C (second compound 0.00949 µM, first compound 1 µM): 39.6% | viability, T/C (second compound 0.00949 µM, first compound 3.16 µM): 39.2% | viability, T/C (second compound 0.00949 µM, first compound 10 µM): 26.7% | viability, T/C (second compound 0.03 µM, first compound 0.0316 µM): 87.2% | viability, T/C (second compound 0.03 µM, first compound 0.1 µM): 72.3% | viability, T/C (second compound 0.03 µM, first compound 0.316 µM): 55.3% | viability, T/C (second compound 0.03 µM, first compound 1 µM): 40.8% | viability, T/C (second compound 0.03 µM, first compound 3.16 µM): 36.6% | viability, T/C (second compound 0.03 µM, first compound 10 µM): 28.1% | viability, T/C (second compound 0.0949 µM, first compound 0.0316 µM): 72.9% | viability, T/C (second compound 0.0949 µM, first compound 0.1 µM): 57.2% | viability, T/C (second compound 0.0949 µM, first compound 0.316 µM): 49.2% | viability, T/C (second compound 0.0949 µM, first compound 1 µM): 38.4% | viability, T/C (second compound 0.0949 µM, first compound 3.16 µM): 37.5% | viability, T/C (second compound 0.0949 µM, first compound 10 µM): 24.9% | viability, T/C (second compound 0.3 µM, first compound 0.0316 µM): 70.3% | viability, T/C (second compound 0.3 µM, first compound 0.1 µM): 54.4% | viability, T/C (second compound 0.3 µM, first compound 0.316 µM): 35.8% | viability, T/C (second compound 0.3 µM, first compound 1 µM): 38% | viability, T/C (second compound 0.3 µM, first compound 3.16 µM): 30.1% | viability, T/C (second compound 0.3 µM, first compound 10 µM): 25%

NC1c2ccccc2OC12CCN(c1cnc3c(N4CCCc5ncccc54)n[nH]c3n1)CC2 (stereo not drawn) + C#Cc1c(F)ccc2cc(O)cc(-c3ncc4c(N5CC6CCC(C5)N6)nc(OCC56CCCN5CC(F)C6)nc4c3F)c12
IC50 [1]: < 0.0316 µM | IC50 [2]: < 0.0316 µM | IC50 [3]: < 0.0316 µM | IC50 [4]: < 0.0316 µM | IC50 [5]: < 0.0316 µM | IC50 [6]: < 0.0316 µM | viability, T/C [7]: 2.52% | viability, T/C [8]: 1.69% | viability, T/C [9]: 1.2% | viability, T/C [10]: 0.72% | viability, T/C (second compound 0.0316 µM, first compound 3.16 µM): 0.33% | viability, T/C (second compound 0.0316 µM, first compound 10 µM): 0.32% | viability, T/C [11]: 1.81% | viability, T/C [12]: 1.39% | viability, T/C [13]: 0.82% | viability, T/C [14]: 0.62% | viability, T/C (second compound 0.1 µM, first compound 3.16 µM): 0.38% | viability, T/C (second compound 0.1 µM, first compound 10 µM): 0.25% | viability, T/C [15]: 1.2% | viability, T/C [16]: 0.66% | viability, T/C [17]: 0.72% | viability, T/C [18]: 0.67% | viability, T/C (second compound 0.316 µM, first compound 3.16 µM): 0.35% | viability, T/C (second compound 0.316 µM, first compound 10 µM): 0.35% | viability, T/C [19]: 1.27% | viability, T/C [20]: 1.46% | viability, T/C [21]: 0.57% | viability, T/C [22]: 0.5% | viability, T/C (second compound 1 µM, first compound 3.16 µM): 0.21% | viability, T/C (second compound 1 µM, first compound 10 µM): 0.22% | viability, T/C [23]: 0.86% | viability, T/C [24]: 1.11% | viability, T/C [25]: 0.52% | viability, T/C [26]: 0.29% | viability, T/C (second compound 3.16 µM, first compound 3.16 µM): 0.29% | viability, T/C (second compound 3.16 µM, first compound 10 µM): 0.34% | viability, T/C [27]: 0.92% | viability, T/C [28]: 0.33% | viability, T/C [29]: 0.31% | viability, T/C [30]: 0.14% | viability, T/C (second compound 10 µM, first compound 3.16 µM): 0.19% | viability, T/C (second compound 10 µM, first compound 10 µM): 0.12%

CC1(O)CCCC1n1c(=O)c(C(F)F)cc2cnc(NC3CCN(S(C)(=O)=O)CC3)nc21 (stereo not drawn)
viability, T/C (compound 0.0316 µM): 77.2% [middle of 4 runs] | viability, T/C (compound 0.1 µM): 50% [middle of 4 runs] | viability, T/C (compound 0.316 µM): 21.1% [middle of 4 runs] | viability, T/C (compound 1 µM): 25.5% [middle of 4 runs] | viability, T/C (compound 3.16 µM): 34.8% [middle of 4 runs] | viability, T/C (compound 10 µM): 6.6% [middle of 4 runs] | IC50 (curve of compound): 100 nM [middle of 4 runs]

CCN1CCN(Cc2ccc(Nc3ncc(F)c(-c4cc(F)c5nc(C)n(C(C)C)c5c4)n3)nc2)CC1 + C#Cc1c(F)ccc2cc(O)cc(-c3ncc4c(N5CC6CCC(C5)N6)nc(OCC56CCCN5CC(F)C6)nc4c3F)c12
IC50 [1]: < 0.00316 µM | IC50 [2]: < 0.00316 µM | IC50 [3]: < 0.00316 µM | IC50 [4]: < 0.00316 µM | IC50 [5]: < 0.00316 µM | IC50 [6]: < 0.00316 µM | viability, T/C (second compound 0.0316 µM, first compound 0.00316 µM): 21% | viability, T/C (second compound 0.0316 µM, first compound 0.01 µM): 18.9% | viability, T/C [7]: 11.8% | viability, T/C [8]: 11.6% | viability, T/C [9]: 5.8% | viability, T/C [10]: 4.39% | viability, T/C (second compound 0.1 µM, first compound 0.00316 µM): 9.77% | viability, T/C (second compound 0.1 µM, first compound 0.01 µM): 9.8% | viability, T/C [11]: 8.49% | viability, T/C [12]: 4.76% | viability, T/C [13]: 3.64% | viability, T/C [14]: 2.94% | viability, T/C (second compound 0.316 µM, first compound 0.00316 µM): 3.83% | viability, T/C (second compound 0.316 µM, first compound 0.01 µM): 3.75% | viability, T/C [15]: 3.3% | viability, T/C [16]: 2.21% | viability, T/C [17]: 2.67% | viability, T/C [18]: 2.17% | viability, T/C (second compound 1 µM, first compound 0.00316 µM): 2.87% | viability, T/C (second compound 1 µM, first compound 0.01 µM): 2.26% | viability, T/C [19]: 2.11% | viability, T/C [20]: 1.55% | viability, T/C [21]: 2.1% | viability, T/C [22]: 2.53% | viability, T/C (second compound 3.16 µM, first compound 0.00316 µM): 1.72% | viability, T/C (second compound 3.16 µM, first compound 0.01 µM): 1.78% | viability, T/C [23]: 1.26% | viability, T/C [24]: 1.41% | viability, T/C [25]: 1.98% | viability, T/C [26]: 1.76% | viability, T/C (second compound 10 µM, first compound 0.00316 µM): 1.13% | viability, T/C (second compound 10 µM, first compound 0.01 µM): 1.55% | viability, T/C [27]: 0.87% | viability, T/C [28]: 0.72% | viability, T/C [29]: 0.67% | viability, T/C [30]: 0.32%
